Data reported in patent publication US11033527B2, “Non-hormonal treatment of the genitourinary syndrome of menopause” (IMMUGEN PHARMA LLC, priority 2018, dated 2021).
Several values for one entry are separate records, joined by “and”; a condition that tells them apart may be missing. Identical values can stand only once.

Assays:
vaginal tissue construct = experiment: microarray analysis of differential gene expression (Affymetrix Human Gene 1.0 ST arrays), tissues treated for seven days via culture medium; assay type: cell-based
Source text: The data from the Affymetrix Human Gene 1.0 ST arrays were normalized using the Robust Multiarray Average (RMA) algorithm and a Chip Definition File (CDF) that maps the probes on the array to unique Entrez Gene identifiers. The result is a matrix in which each column corresponds to a sample. The expression values are log 2-transformed by default.
By using a fold change >1.5, an analysis of differentially expressed genes was done to identify those genes which were involved in the cornified envelope, keratinocyte differentiation, cell differentiation, epidermis development, epithelial cell differentiation, junctional proteins and signaling, immune response and innate immune response.

[1] = molecular target: endocannabinoid receptor type 2 (CB2) (Homo sapiens, UniProt P34972); details: cited from earlier work
EpiVaginal tissues = experiment: macrophage infiltration in treated EpiVaginal tissues (barrier function), four hours in the presence of TNF-α; assay type: cell-based; details: vs. 28% into the untreated tissue; macrophages cultured with the tissue for four hours in the presence of TNF-α
Source text: FIG. 1 is a graph showing macrophage infiltration in hormone (estrogen) and L759,633-treated EpiVaginal tissues. L759,633 had the most striking effect on macrophage infiltration: only 6% of cells infiltrated into the tissue past 90 μm (vs. 28% into the untreated tissue, p<0.006 ANOVA). […] U=untreated control; E=estradiol; P=progesterone; and IMG=the cannabinoid L759,633.
Many of the above-noted genes are differentially regulated by estradiol in menopausal tissue. […] With respect to the barrier function, only 6% of macrophages which had been cultured with the tissue for four hours in the presence of TNF-α were capable of infiltrating into the tissue past 90 um (vs. 28% into the untreated tissue, p<0.006 ANOVA). […] This would indicate that the increased gene expression of the proteins involved with cross-linking of the keratin fibers, filagrins and desmosomal cadherins are all contributing to the fortification of the vaginal mucosa which would prevent the infiltration of pathogens and prevent the loss of solutes and water from within the tissue.

[2] = down-regulated by this fold, given without sign

Chain of endocannabinoid receptor type 2 (CB2) (P34972 whole entry, species assumed): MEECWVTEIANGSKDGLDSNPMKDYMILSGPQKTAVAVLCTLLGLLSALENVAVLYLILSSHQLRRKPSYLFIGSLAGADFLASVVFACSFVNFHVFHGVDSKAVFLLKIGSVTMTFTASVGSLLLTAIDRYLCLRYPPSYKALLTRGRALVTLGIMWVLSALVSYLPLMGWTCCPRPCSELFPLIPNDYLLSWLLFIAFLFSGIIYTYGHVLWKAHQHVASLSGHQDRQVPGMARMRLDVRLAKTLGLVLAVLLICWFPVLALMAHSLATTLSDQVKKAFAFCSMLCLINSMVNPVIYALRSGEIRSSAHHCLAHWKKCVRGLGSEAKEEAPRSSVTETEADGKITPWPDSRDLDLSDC

For `CCCCCCC(C)(C)c1cc(OC)c2c(c1)OC(C)(C)[C@@H]1CC=C(C)C[C@@H]21` [L759,633], the “SPRR2D Fold Change” value (vaginal tissue construct) was 3.431 fold, the “WFDC12 Fold Change” value (vaginal tissue construct) was 7.884 fold and the CFB down-regulation (vaginal tissue construct; [2]) was 2.285 fold. For the same compound, the CFH down-regulation (vaginal tissue construct; [2]) was 1.769 fold, the “AGR2 Fold Change” value (vaginal tissue construct; gene Anterior gradient homolog 2 (Xenopus laevis)) was −3.1 fold and the “CXCL8 Expr Fold Change” value (vaginal tissue construct; gene C-X-C motif chemokine ligand 8) was −2.298 fold. The “CXCL17 Expr Fold Change” value (vaginal tissue construct; gene C-X-C motif chemokine ligand 17) was −2.038 fold, the “CXCR2 Expr Fold Change” value (vaginal tissue construct; gene C-X-C motif chemokine receptor 2) was 1.871 fold and the “CD14 Expr Fold Change” value (vaginal tissue construct; gene CD14 molecule) was −2.154 fold. For the same compound, the “CD74 Expr Fold Change” value (vaginal tissue construct; gene CD74 molecule) was −2.103 fold, the “CD151 Expr Fold Change” value (vaginal tissue construct; gene CD151 molecule (Raph blood group)) was −1.664 fold and the “CD244 Expr Fold Change” value (vaginal tissue construct; gene CD244 molecule) was 2.837 fold. For the same compound, the “CDSN Fold Change” value (vaginal tissue construct; gene Corneodesmosin) was 9.465 fold, the “CCL28 Expr Fold Change” value (vaginal tissue construct; gene C−C motif chemokine ligand 28) was −2.504 fold and the “FYB1 Expr Fold Change” value (vaginal tissue construct; gene FYN binding protein 1) was −2.604 fold. For the same compound, the “IFNE Fold Change” value (vaginal tissue construct; gene Interferon Epsilon) was 5.496 fold, the “IL19 Fold Change” value (vaginal tissue construct; gene Interleukin 19) was −3.5 fold and the “NLRP10 Fold Change” value (vaginal tissue construct; gene NLR family pyrin domain containing 10) was 15.93 fold. For the same compound, the “RNAse7 Fold Change” value (vaginal tissue construct; gene RNAse family) was 8.158 fold, the “TIAM1 Expr Fold Change” value (vaginal tissue construct; gene T cell lymphoma invasion and metastasis 1) was 2.249 fold and the “TNFAIP8 Expr Fold Change” value (vaginal tissue construct; gene TNF alpha induced protein 8) was −1.601 fold. The “TNFRSF10C Expr Fold Change” value (vaginal tissue construct; gene TNF receptor superfamily member 10c) was −2.458 fold, the “TNFRSF11B Expr Fold Change” value (vaginal tissue construct; gene TNF receptor superfamily member 11b) was −2.012 fold and the “TSPAN1 Fold Change” value (vaginal tissue construct; gene Tetraspanin 1) was −2.3 fold. The “TGM1 Fold Change” value (vaginal tissue construct; gene Transglutaminase 1) was 1.966 fold, the “TGM3 Fold Change” value (vaginal tissue construct; gene Transglutaminase 3) was 30.074 fold and 30.1 fold and the “TGM5 Fold Change” value (vaginal tissue construct; gene Transglutaminase 5) was 2.237 fold. For the same compound, the “TRIM31 Fold Change” value (vaginal tissue construct; gene Tripartite motif-containing 31) was −5.9 fold, the “VTCN1 Expr Fold Change” value (vaginal tissue construct; gene V-set domain containing T cell activation inhibitor 1) was −4.666 fold and the “WFDC2 Fold Change” value (vaginal tissue construct; gene WAP four-disulfide core domain 2) was −2.8 fold. The “WFDC5 Fold Change” value (vaginal tissue construct; gene WAP four-disulfide core domain 5) was 3.139 fold, the “ALOX12B Fold Change” value (vaginal tissue construct; gene arachidonate 12-lipoxygenase, 12R type) was 6.6 fold and 6.683 fold and the “ALOX12 Fold Change” value (vaginal tissue construct; gene arachidonate 12-lipoygenase) was 1.5 fold. For the same compound, the “ALOXE3 Fold Change” value (vaginal tissue construct; gene arachidonate lipoxygenase 3) was 3.659 fold, the “ASS1 Fold Change” value (vaginal tissue construct; gene arginosuccinate synthetase 1) was −2.8 fold and the “CLDN17 Fold Change” value (vaginal tissue construct; gene claudin 17) was 11 fold. The “CCDC59 Expr Fold Change” value (vaginal tissue construct; gene coiled-coil domain containing 59) was −1.795 fold, the “CSF2RB Expr Fold Change” value (vaginal tissue construct; gene colony stimulating factor 2 receptor beta common subunit) was 2.79 fold and the “CFH Expr Fold Change” value (vaginal tissue construct; gene complement factor H) was −1.769 fold. For the same compound, the “CNFN Fold Change” value (vaginal tissue construct; gene cornifelin) was 1.62 fold, the “CRCT1 Fold Change” value (vaginal tissue construct; gene cysteine-rich C-terminal 1) was 2.6 fold and the “DMKN Fold Change” value (vaginal tissue construct; gene dermokine) was 2.362 fold. For the same compound, the “DCS3 Fold Change” value (vaginal tissue construct; gene descmocollin 3) was 1.9 fold, the “DSC1 Fold Change” value (vaginal tissue construct; gene desmocollin 1) was 10.494 fold and the “DSC2 Fold Change” value (vaginal tissue construct; gene desmocollin 2) was 1.7 fold. For the same compound, the “DSG1 Fold Change” value (vaginal tissue construct; gene desmoglein 1) was 9.191 fold and 8.7 fold, the “FLG Fold Change” value (vaginal tissue construct; gene filaggrin) was 4.549 fold and the “FLG2 Fold Change” value (vaginal tissue construct; gene filaggrin family member 2) was 10.449 fold. The “GYS2 Fold Change” value (vaginal tissue construct; gene glycogen synthase 2 (liver)) was 2.9 fold, the “KPRP Fold Change” value (vaginal tissue construct; gene human keratinocyte proline rich protein) was 25.318 fold and 25.3 fold and the “IFIT5 Expr Fold Change” value (vaginal tissue construct; gene interferon induced protein with tetratricopeptide repeats 5) was −2.183 fold. The “IFIH1 Expr Fold Change” value (vaginal tissue construct; gene interferon induced with helicase C domain 1) was −1.922 fold, the “IRF1 Expr Fold Change” value (vaginal tissue construct; gene interferon regulatory factor 1) was −3.253 fold and the “IRF9 Expr Fold Change” value (vaginal tissue construct; gene interferon regulatory factor 9) was −1.535 fold. The “IL1RL2 Expr Fold Change” value (vaginal tissue construct; gene interleukin 1 receptor like 2) was 2.508 fold, the “IL7R Expr Fold Change” value (vaginal tissue construct; gene interleukin 7 receptor) was −2.852 fold and the “IL18BP Expr Fold Change” value (vaginal tissue construct; gene interleukin 18 binding protein) was 1.532 fold. For the same compound, the “IL23A Expr Fold Change” value (vaginal tissue construct; gene interleukin 23 subunit alpha) was 2.677 fold, the “IL33 Expr Fold Change” value (vaginal tissue construct; gene interleukin 33) was −3.109 fold and the “IL36A Expr Fold Change” value (vaginal tissue construct; gene interleukin 36 alpha) was 4.185 fold. The “IL36RN Expr Fold Change” value (vaginal tissue construct; gene interleukin 36 receptor antagonist) was 4.668 fold, the “KLK6 Fold Change” value (vaginal tissue construct; gene kallikrein related peptidase 6) was 4.651 fold and the “KLK8 Fold Change” value (vaginal tissue construct; gene kallikrein related peptidase 8) was 1.842 fold. The “KLK10 Fold Change” value (vaginal tissue construct; gene kallikrein related peptidase 10) was 2.554 fold, the “KLK12 Fold Change” value (vaginal tissue construct; gene kallikrein related peptidase 12) was 3.933 fold and the “KLK13 Fold Change” value (vaginal tissue construct; gene kallikrein related peptidase 13) was 3.957 fold. For the same compound, the “KRT1 Fold Change” value (vaginal tissue construct; gene keratin 1) was 10.739 fold and 10.5 fold, the “KRT2 Fold Change” value (vaginal tissue construct; gene keratin 2) was 1.801 fold and the “KRT20 Fold Change” value (vaginal tissue construct; gene keratin 20) was −3.42 fold. The “KRT23 Fold Change” value (vaginal tissue construct; gene keratin 23) was 1.912 fold, the “KRT24 Fold Change” value (vaginal tissue construct; gene keratin 24) was 1.619 fold and the “KRTDAP Fold Change” value (vaginal tissue construct; gene keratinocyte differentiation associated protein) was 15.751 fold and 15.7 fold. The “LCE1A Fold Change” value (vaginal tissue construct; gene late cornified envelope 1A) was 1.884 fold, the “LCE1C Fold Change” value (vaginal tissue construct; gene late cornified envelope 1C) was 4.063 fold and the “LCE1F Fold Change” value (vaginal tissue construct; gene late cornified envelope 1F) was 1.593 fold. For the same compound, the “LCE2A Fold Change” value (vaginal tissue construct; gene late cornified envelope 2A) was 6.392 fold, the “LCE2B Fold Change” value (vaginal tissue construct; gene late cornified envelope 2B) was 11.182 fold and the “LCE2C/LCE2D Fold Change” value (vaginal tissue construct; gene late cornified envelope 2D) was 24.247 fold. The “LCE3D Fold Change” value (vaginal tissue construct; gene late cornified envelope 3D) was 15.6 fold, the “LCE3E Fold Change” value (vaginal tissue construct; gene late cornified envelope 3E) was 16 fold and the “LCE5A Fold Change” value (vaginal tissue construct; gene late cornified envelope 5A) was 1.63 fold. The “LIPM Fold Change” value (vaginal tissue construct; gene lipase family member M) was 11.426 fold, the “LIPN Fold Change” value (vaginal tissue construct; gene lipase family member N) was 7.346 fold and the “LIPN1 Fold Change” value (vaginal tissue construct; gene lipin 1) was 3.775 fold. The “LOR Fold Change” value (vaginal tissue construct; gene loricrin) was 7.932 fold, the “LY6G6C Expr Fold Change” value (vaginal tissue construct; gene lymphocyte antigen 6 family member G6C) was 6.538 fold and the “HLA-C Expr Fold Change” value (vaginal tissue construct; gene major histocompatibility complex, class C) was −1.691 fold. For the same compound, the “HLA-B Expr Fold Change” value (vaginal tissue construct; gene major histocompatibility complex, class I, B) was −2.168 fold, the “HLA-DMB Expr Fold Change” value (vaginal tissue construct; gene major histocompatibility complex, class II, DM beta) was −1.591 fold and the “HLA-DPA1 Expr Fold Change” value (vaginal tissue construct; gene major histocompatibility complex, class II, DP alpha 1) was −1.7 fold. The “HLA-DRA Expr Fold Change” value (vaginal tissue construct; gene major histocompatibility complex, class II, DR alpha) was −2.792 fold, the “HLA-DRB6 Expr Fold Change” value (vaginal tissue construct; gene major histocompatibility complex, class II, DR beta 6 (pseudogene)) was −2.7 fold and the “ME1 Fold Change” value (vaginal tissue construct; gene malic enzyme 1, NADP(+)-dependent cytosolic) was 2.9 fold. The “MUCL1 Fold Change” value (vaginal tissue construct; gene mucin like 1) was ~2 fold and 1.964 fold, the “NCR3LG1 Expr Fold Change” value (vaginal tissue construct; gene natural killer cell cytotoxicity receptor 3 ligand 1) was 2.482 fold and the “NFAT5 Expr Fold Change” value (vaginal tissue construct; gene nuclear factor of activated T cells 5) was 2.265 fold. The “OLFM4 Expr Fold Change” value (vaginal tissue construct; gene olfactomedin 4) was −6.772 fold, the “PNLIPRP3 Fold Change” value (vaginal tissue construct; gene pancreatic lipase-related protein 3) was 1.6 fold and the “PLA2G2F Fold Change” value (vaginal tissue construct; gene phospholipase A2 group IIF) was 2.054 fold. The “PLA2G3 Fold Change” value (vaginal tissue construct; gene phospholipase A2 group III) was 2.218 fold, the “PLA2G4D Fold Change” value (vaginal tissue construct; gene phospholipase A2 group IVD) was 3.526 fold and the “PLA2G4E Fold Change” value (vaginal tissue construct; gene phospholipase A2 group IVE) was 3.36 fold. For the same compound, the “PLA2G10 Fold Change” value (vaginal tissue construct; gene phospholipase A2 group X) was −3.027 fold, the “PLAC8 Fold Change” value (vaginal tissue construct; gene placenta-specific 8) was −3.3 fold and the “PIGR Fold Change” value (vaginal tissue construct; gene polymeric immunoglobulin receptor) was −2.4 fold. For the same compound, the “PDCD1LG2 Expr Fold Change” value (vaginal tissue construct; gene programmed cell death 1 ligand 2) was −1.74 fold, the “RPS15A Expr Fold Change” value (vaginal tissue construct; gene ribosomal protein S15a) was −1.78 fold and the “SERPINB12 Fold Change” value (vaginal tissue construct; gene serpin family B member 12) was 5.202 fold and 5.1 fold. The “STAT4 Expr Fold Change” value (vaginal tissue construct; gene signal transducer and activator of transcription 4) was −2.518 fold, the “SPRR2G Fold Change” value (vaginal tissue construct; gene small proline rich protein 2G) was 10.387 fold and the “SPRR4 Fold Change” value (vaginal tissue construct; gene small proline rich protein 4) was 2.619 fold. The “SBSN Fold Change” value (vaginal tissue construct; gene suprabasin) was 4.36 fold and 4.3 fold, the “TLR3 Expr Fold Change” value (vaginal tissue construct; gene toll like receptor 3) was −3.274 fold and the “TRPV3 Fold Change” value (vaginal tissue construct; gene transient receptor potential cation channel subfamily V member 3) was 2.8 fold and 2.804 fold. For the same compound, the “UBA7 Expr Fold Change” value (vaginal tissue construct; gene ubiquitin like modifier activating enzyme 7) was −2.031 fold, the “VEGFA Fold Change” value (vaginal tissue construct; gene vascular endothelial growth factor A) was 2.0 fold and 1.885 fold and the “mir-23 Expr Fold Change” value (vaginal tissue construct; microRNA 23a) was 2.823 fold. For the same compound, the “mir-224 Expr Fold Change” value (vaginal tissue construct; microRNA 224) was 6.266 fold, the MMP10 expression (vaginal tissue construct; result in words) was “downregulated” and the “agonist type by receptor internalization” value [1] was “partial agonist”. For the same compound, the “macrophages infiltrated into the tissue past 90 μm” value (EpiVaginal tissues) was 6%.
